Reference: PubChem BioAssay (NCI)
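Growth conditions: 96-well plates. Treatment: test compound, 48 hours, 5 concentrations. Analysis: linear interpolation between bracketing concentrations; unreached endpoints set to highest concentration. The concentration for full growth arrest is given as TGI.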

What was measured:
Experiment in all cases: NCI tumour cell line growth inhibition, 48 h
[1] = test system: 786-0 renal
[2] = test system: A498 renal
[3] = test system: A549 NSCLC
[4] = test system: ACHN renal
[5] = test system: CAKI-1 renal
[6] = test system: CCRF-CEM leukemia
[7] = test system: COLO 205 colon
[8] = test system: DLD-1 colon
[9] = test system: DMS 114 small cell lung
[10] = test system: DMS 273 small cell lung
[11] = test system: EKVX NSCLC
[12] = test system: HCC-2998 colon
[13] = test system: HCT-116 colon
[14] = test system: HCT-15 colon
[15] = test system: HL-60(TB) leukemia
[16] = test system: HOP-18 NSCLC
[17] = test system: HOP-62 NSCLC
[18] = test system: HOP-92 NSCLC
[19] = test system: HT29 colon
[20] = test system: IGROV1 ovarian
[21] = test system: K-562 leukemia
[22] = test system: KM12 colon
[23] = test system: KM20L2 colon
[24] = test system: LOX IMVI melanoma
[25] = test system: LXFL 529 NSCLC
[26] = test system: M14 melanoma
[27] = test system: M19-MEL melanoma
[28] = test system: MALME-3M melanoma
[29] = test system: MOLT-4 leukemia
[30] = test system: NCI-H226 lung
[31] = test system: NCI-H23 lung
[32] = test system: NCI-H460 lung
[33] = test system: NCI-H522 lung
[34] = test system: OVCAR-3 ovarian
[35] = test system: OVCAR-4 ovarian
[36] = test system: OVCAR-5 ovarian
[37] = test system: OVCAR-8 ovarian
[38] = test system: RXF 393 renal
[39] = test system: RXF-631 renal
[40] = test system: SF-268 CNS
[41] = test system: SF-295 CNS
[42] = test system: SF-539 CNS
[43] = test system: SK-MEL-2 melanoma
[44] = test system: SK-MEL-28 melanoma
[45] = test system: SK-MEL-5 melanoma
[46] = test system: SK-OV-3 ovarian
[47] = test system: SN12C renal
[48] = test system: SNB-19 CNS
[49] = test system: SNB-75 CNS
[50] = test system: SNB-78 CNS
[51] = test system: SR leukemia
[52] = test system: TK-10 renal
[53] = test system: U251 CNS
[54] = test system: UACC-257 melanoma
[55] = test system: UACC-62 melanoma
[56] = test system: UO-31 renal
[57] = test system: XF 498 CNS
[58] = test system: RPMI-8226 leukemia
[59] = test system: SW-620 colon

Work on `CCOC(=O)c1sc2c(sc(=O)n2-c2ccccc2)c1O` yielded a TGI [1] of over 100 µM, a TGI [2] of over 100 µM and a TGI [3] of over 100 µM. It also gave a TGI [4] of over 100 µM, a TGI [5] of over 100 µM and a TGI [6] of over 100 µM. The TGI [7] was over 100 µM, the TGI [8] was over 100 µM and the TGI [9] was over 100 µM. The TGI [10] was over 100 µM, the TGI [11] was over 100 µM and the TGI [12] was over 100 µM. The TGI [13] was over 100 µM, the TGI [14] was over 100 µM and the TGI [15] was over 100 µM. It also gave a TGI [16] of over 100 µM, a TGI [17] of over 100 µM and a TGI [18] of over 100 µM. The TGI [19] was over 100 µM, the TGI [20] was over 100 µM and the TGI [21] was over 100 µM. The TGI [22] was over 100 µM, the TGI [23] was over 100 µM and the TGI [24] was over 100 µM. The TGI [25] was over 100 µM, the TGI [26] was over 100 µM and the TGI [27] was over 100 µM. The TGI [28] was over 100 µM, the TGI [29] was over 100 µM and the TGI [30] was over 100 µM. It also gave a TGI [31] of over 100 µM, a TGI [32] of over 100 µM and a TGI [33] of over 100 µM. It also gave a TGI [34] of over 100 µM, a TGI [35] of over 100 µM and a TGI [36] of over 100 µM. It also gave a TGI [37] of over 100 µM, a TGI [38] of over 100 µM and a TGI [39] of over 100 µM. It also gave a TGI [40] of over 100 µM, a TGI [41] of over 100 µM and a TGI [42] of over 100 µM. It also gave a TGI [43] of over 100 µM, a TGI [44] of over 100 µM and a TGI [45] of over 100 µM. For the same compound, the TGI [46] was over 100 µM, the TGI [47] was over 100 µM and the TGI [48] was over 100 µM. The TGI [49] was over 100 µM, the TGI [50] was over 100 µM and the TGI [51] was over 100 µM. It also gave a TGI [52] of over 100 µM, a TGI [53] of over 100 µM and a TGI [54] of over 100 µM. It also gave a TGI [55] of over 100 µM, a TGI [56] of over 100 µM and a TGI [57] of over 100 µM.
`C[C@]12CC[C@H](OC3CCCCO3)CC1=CC[C@@H]1C2CC[C@]2(C)/C(=N/OCCC#N)CCC12` (some centres not stated) was tested, and the TGI [1] was 72.2 µM, the TGI [2] was over 100 µM and the TGI [3] was over 100 µM. For the same compound, the TGI [4] was over 100 µM, the TGI [5] was over 100 µM and the TGI [8] was over 100 µM. The TGI [9] was over 100 µM, the TGI [10] was over 100 µM and the TGI [11] was over 100 µM. The TGI [12] was over 100 µM, the TGI [13] was over 100 µM and the TGI [14] was over 100 µM. The TGI [16] was over 100 µM, the TGI [17] was over 100 µM and the TGI [18] was 57.6 µM. For the same compound, the TGI [20] was over 100 µM, the TGI [21] was over 100 µM and the TGI [22] was over 100 µM. For the same compound, the TGI [23] was over 100 µM, the TGI [24] was over 100 µM and the TGI [25] was over 100 µM. The TGI [26] was over 100 µM, the TGI [27] was over 100 µM and the TGI [28] was over 100 µM. The TGI [31] was 95.1 µM, the TGI [32] was over 100 µM and the TGI [33] was over 100 µM. The TGI [34] was over 100 µM, the TGI [35] was 66.5 µM and the TGI [37] was over 100 µM. For the same compound, the TGI [58] was over 100 µM, the TGI [38] was 40.2 µM and the TGI [39] was over 100 µM. The TGI [41] was over 100 µM, the TGI [42] was over 100 µM and the TGI [43] was over 100 µM. For the same compound, the TGI [44] was over 100 µM, the TGI [45] was over 100 µM and the TGI [46] was over 100 µM. The TGI [47] was over 100 µM, the TGI [48] was over 100 µM and the TGI [49] was 58.4 µM. For the same compound, the TGI [50] was 72.1 µM, the TGI [59] was over 100 µM and the TGI [52] was 72.9 µM. For the same compound, the TGI [53] was over 100 µM, the TGI [54] was over 100 µM and the TGI [55] was over 100 µM. For the same compound, the TGI [56] was over 100 µM and the TGI [57] was 20.5 µM.
For `COC(=O)C1=C(C(=O)OC)C2(C3C(SC)=CC(C)(C)CC3S1)N(Cc1ccccc1)CCN2Cc1ccccc1` (configuration not stated), the TGI [1] was over 100 µM, the TGI [3] was over 100 µM and the TGI [4] was over 100 µM. For the same compound, the TGI [5] was over 100 µM, the TGI [6] was over 100 µM and the TGI [7] was over 100 µM. It also gave a TGI [8] of over 100 µM, a TGI [9] of over 100 µM and a TGI [10] of over 100 µM. The TGI [11] was over 100 µM, the TGI [13] was over 100 µM and the TGI [14] was over 100 µM. The TGI [16] was over 100 µM, the TGI [17] was over 100 µM and the TGI [18] was 16.1 µM. It also gave a TGI [19] of over 100 µM, a TGI [20] of over 100 µM and a TGI [21] of over 100 µM. For the same compound, the TGI [22] was over 100 µM, the TGI [23] was over 100 µM and the TGI [24] was over 100 µM. It also gave a TGI [25] of over 100 µM, a TGI [26] of over 100 µM and a TGI [27] of over 100 µM. For the same compound, the TGI [28] was over 100 µM, the TGI [29] was over 100 µM and the TGI [30] was over 100 µM. It also gave a TGI [31] of over 100 µM, a TGI [32] of over 100 µM and a TGI [33] of over 100 µM. For the same compound, the TGI [34] was over 100 µM, the TGI [35] was over 100 µM and the TGI [36] was over 100 µM. The TGI [37] was over 100 µM, the TGI [58] was over 100 µM and the TGI [38] was over 100 µM. For the same compound, the TGI [39] was over 100 µM, the TGI [40] was over 100 µM and the TGI [41] was over 100 µM. For the same compound, the TGI [42] was over 100 µM, the TGI [43] was over 100 µM and the TGI [44] was over 100 µM. For the same compound, the TGI [45] was over 100 µM, the TGI [46] was over 100 µM and the TGI [47] was over 100 µM. For the same compound, the TGI [48] was over 100 µM, the TGI [49] was over 100 µM and the TGI [50] was over 100 µM. The TGI [59] was over 100 µM, the TGI [52] was over 100 µM and the TGI [53] was over 100 µM. The TGI [54] was over 100 µM, the TGI [55] was over 100 µM and the TGI [56] was over 100 µM. It also gave a TGI [57] of over 100 µM.
